In article PMC3974725, “A Random Sequential Mechanism of Aminoglycoside Acetylation by Mycobacterium tuberculosis Eis Protein” (PLoS ONE, 2014):
Read-outs that look alike come from different tables or passages of the source.

Experiments:
[1] = target: T1, MtEis (Mycobacterium tuberculosis, UniProt P9WFK7); test: Steady-state acetyltransferase assays (DTNB, absorbance at 412 nm), bisubstrate kinetic analysis; type: biochemical
[2] = target: T1, MtEis; settings: cited from earlier work

T1 sequence (P9WFK7 whole entry, looked up): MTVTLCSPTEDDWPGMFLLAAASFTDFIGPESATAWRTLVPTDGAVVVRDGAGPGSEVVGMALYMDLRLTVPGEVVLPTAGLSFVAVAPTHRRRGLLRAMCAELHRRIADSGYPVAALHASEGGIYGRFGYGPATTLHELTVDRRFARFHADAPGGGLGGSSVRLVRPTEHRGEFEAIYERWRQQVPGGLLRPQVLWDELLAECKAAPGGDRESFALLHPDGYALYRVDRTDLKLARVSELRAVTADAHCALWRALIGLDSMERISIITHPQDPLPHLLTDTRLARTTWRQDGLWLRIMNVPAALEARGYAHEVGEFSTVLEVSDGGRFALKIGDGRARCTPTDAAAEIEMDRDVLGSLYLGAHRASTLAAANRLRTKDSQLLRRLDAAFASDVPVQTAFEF

| Compound | k cat (microscopic rate constant of the acetylation step) ([1]; AG as substrate of MtEis, random sequential mechanism fit, Tris 50 mM, pH 8.0) [s⁻¹] | extent of acetylation by MtEis [2] | higher affinity for the AcCoA bound enzyme than KAN ([1]; NEO versus KAN, K d,AG(AcCoA•E)) | Kd ([1]; binding of AG to free enzyme, from thermodynamic cycle K d,AcCoA(E) K d,AG(AcCoA•E)/K d,AcCoA(AG•E), read-out: K d,AG(E)) [µM] | Kd ([1]; binding of AG to the AcCoA bound enzyme, simultaneous fit of KAN and NEO acetylation data, read-out: K d,AG(AcCoA•E)) [µM] | K d,AcCoA(E) lower than that for AcCoA binding to Eis from M. smegmatis ([1]; MtEis versus M. smegmatis Eis value of ref 6) | Kd ([1]; binding of AcCoA to free MtEis, read-out: K d,AcCoA(E)) [µM] | Kd ([1]; binding of AcCoA to the KAN bound enzyme, read-out: K d,AcCoA(AG•E)) [µM] | Kd ([1]; binding of AcCoA to the NEO bound enzyme, read-out: K d,AcCoA(AG•E)) [µM] |
| --- | --- | --- | --- | --- | --- | --- | --- | --- | --- |
| kanamycin A | 0.68 ± 0.15 | di-acetylated |  |  |  |  |  |  |  |
| NC[C@@H]1O[C@H](O[C@H]2[C@@H](O)[C@H](O[C@@H]3[C@@H](O)[C@H](N)C[C@H](N)[C@H]3O[C@H]3O[C@H](CN)[C@@H](O)[C@H](O)[C@H]3N)O[C@@H]2CO)[C@H](N)[C@@H](O)[C@@H]1O [NEO, neomycin B] |  | tri-acetylated | approximately 3 fold | 22 ± 17 | 135 ± 53 |  |  |  |  |
| CC(=O)SCCNC(=O)CCNC(=O)[C@H](O)C(C)(C)COP(=O)(O)OP(=O)(O)OC[C@H]1O[C@@H](n2cnc3c(N)ncnc32)[C@H](O)[C@@H]1OP(=O)(O)O [AcCoA, acetyl coenzyme A] |  |  |  |  |  | about 4 fold | 18 ± 14 | 45 ± 37 | 111 ± 62 |
